Experimental findings from patent publication US20160031839A1, “ARGININE […] INHIBITORS AND USES THEREOF” (EPIZYME, INC., priority 2013, published 2016) are described below.

The IC50 is the point on the concentration scale where inhibition reaches its midpoint.

For this assay, the target named is T1, CARM1 (PRMT4) (Homo sapiens, UniProt Q86X55).
T1 construct: Flag-CARM1-His was eluted with 200 ug/ml FLAG peptide in buffer A; made in house; host or cells: HEK 293F cells (BacMam baculovirus)
T1 sequence (Q86X55 2-585 isoform Q86X55-1): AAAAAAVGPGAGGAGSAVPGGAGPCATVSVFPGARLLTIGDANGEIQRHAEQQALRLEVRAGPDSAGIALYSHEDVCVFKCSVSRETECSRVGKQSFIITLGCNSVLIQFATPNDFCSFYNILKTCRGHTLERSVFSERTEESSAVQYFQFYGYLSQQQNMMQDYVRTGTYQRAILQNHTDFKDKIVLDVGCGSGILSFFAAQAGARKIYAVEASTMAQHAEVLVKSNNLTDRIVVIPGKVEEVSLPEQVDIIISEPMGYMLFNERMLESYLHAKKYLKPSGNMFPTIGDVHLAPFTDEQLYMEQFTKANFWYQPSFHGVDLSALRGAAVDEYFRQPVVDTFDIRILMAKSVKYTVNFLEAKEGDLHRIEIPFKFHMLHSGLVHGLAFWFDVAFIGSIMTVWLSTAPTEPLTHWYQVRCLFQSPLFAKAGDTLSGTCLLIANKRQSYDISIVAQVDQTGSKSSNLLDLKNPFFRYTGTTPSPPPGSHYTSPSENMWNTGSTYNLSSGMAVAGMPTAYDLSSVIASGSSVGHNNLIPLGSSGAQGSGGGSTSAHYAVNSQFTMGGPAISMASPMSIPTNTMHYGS
Nature of the assay: CARM1 Biochemical Assay. The source says: Peptide representative of human histone H3 residues 16-30 was synthesized with an N-terminal linker-affinity tag motif and a C-terminal amide cap by 21st Century Biochemicals. The peptide was purified by high-performance liquid chromatography (HPLC) to greater than 95% purity and confirmed by liquid chromatography mass spectrometry (LC-MS). The sequence was Biot-Ahx-[…]-amide and contained a monomethylated arginine at position 26 (SEQ ID NO.: 14).
Human CARM1 (PRMT4) (NM_199141.1) transcript clone was amplified from an HEK 293 cDNA library, incorporating a flanking 5′ sequence encoding a FLAG tag ([…]) (SEQ ID NO.:6) fused directly to Ala 2 of CARM1 and 3′ sequence encoding a hexa His sequence ([…]) (SEQ ID NO.: 15) fused directly to Ser 608. The gene sequence encoding isoform1 containing a deletion of amino acids 539-561 was amplified subsequently and subcloned into pFastBacMam (Viva Biotech).
Column was washed with 500 mM NaCl in buffer A and Flag-CARM1-His was eluted with 200 ug/ml FLAG peptide in buffer A. Pooled fractions were dialyzed in 20 mM Tris, 150 mM NaCl, 5% glycerol and 1 mM DTT, pH 7.8. The purity of recovered protein was 94.
General Procedure for CARM1 Enzyme Assays on Peptide Substrates.
The assays were all performed in a buffer consisting of 20 mM Bicine (pH=7.6), 1 mM TCEP, 0.005% BSG, and 0.002% Tween 20, prepared on the day of use. Compounds in 100% DMSO (1 ul) were spotted into a polypropylene 384-well V-bottom plates (Greiner) using a Platemate Plus outfitted with a 384-channel head (Thermo Scientific). DMSO (1 ul) was added to Columns 11, 12, 23, 24, rows A-H for the maximum signal control and 1 ul of SAH, a known product and inhibitor of CARM1, was added to columns 11, 12, 23, 24, rows I-P for the minimum signal control. A cocktail (40 ul) containing the CARM1 enzyme was added by Multidrop Combi (Thermo-Fisher). The compounds were allowed to incubate with CARM1 for 30 min at room temperature, then a cocktail (10 ul) containing ^3H-SAM and peptide was added to initiate the reaction (final volume=51 ul). The final concentrations of the components were as follows: CARM1 was 0.25 nM, ^3H-SAM was 30 nM, peptide was 250 nM, SAH in the minimum signal control wells was 1 mM, and the DMSO concentration was 2%. The assays were stopped by the addition of non-radiolabeled SAM (10 ul) to a final concentration of 300 uM, which dilutes the ^3H-SAM to a level where its incorporation into the peptide substrate is no longer detectable. […] The plates were then read in a PerkinElmer TopCount plate reader to measure the quantity of ^3H-labeled peptide bound to the Flashplate surface, measured as disintegrations per minute (dpm) or alternatively, referred to as counts per minute (cpm). […]

Where [1] appears, read: Table 2, biochemical evaluation, read-out: PRMT4 IC50 (class).
[2] abbreviates: Table 2a, numerical, single experiment or average of multiple experiments, read-out: PRMT4 IC50.

Each structure is given as a SMILES string. Like-named read-outs stand apart in the source and are kept apart here. A value given as a limit tells only on which side of the number the result lay.

Regarding `CN(CCN)Cc1ncoc1-c1ccc(C#N)cc1` [Compound 1, 4-(4-(((2-aminoethyl)(methyl)amino)methyl)oxazol-5-yl)benzonitrile], the IC50 under setting [1] was more than 10 µM and the 50% inhibitory concentration (IC50) under setting [2] is more than 10 µM.

Regarding `CN(CCN)Cc1ccnn1-c1ccc(C#N)cc1` [Compound 2, 4-(5-(((2-aminoethyl)(methyl)amino)methyl)-1H-pyrazol-1-yl)benzonitrile], the IC50 by setting is: under setting [1], more than 10 µM; under setting [2], more than 10 µM.
